Results from patent US20260102383A1, “LPAR1 Inhibitors” (AbbVie Inc., priority 2024, published 2026).
Like-named read-outs stand apart in the source and are kept apart here. Marks after values point to notes of the source that are not given here.

Tests used:
[1] = system: disease-relevant skin proteins in bleomycin-induced skin fibrosis; test: Bleomycin-evoked skin fibrosis model, skin protein levels (ELISA, MSD U-plex); assay type: in vivo, C57B6J mice
Procedure: (§1) The activity of Compound 15 was measured using a bleomycin-evoked skin fibrosis model.
(§2) For the bleomycin model of skin fibrosis, C57B6J mice were purchased at 9 to 11 weeks of age. Upon arriving, mice were group-housed 10 per cage in individually ventilated cages, with a normal 12:12 hour light: dark cycle. Animals were acclimated to the animal facilities for a period of at least 10 days prior to initiation of bleomycin model studies; mouse ears were tagged for animal identification. At the initiation of bleomycin administration, 93M diet gel was also added to the cages of all mice and available ad libitum for the duration of the experiment. For all animals studied, food and water were available ad libitum.
(§3) The upper back region of the mouse was shaved and two circles (˜1 cm diameter) were drawn onto the skin to identify the location for bleomycin injection. To induce skin fibrosis, mice received subcutaneous injections of bleomycin (10 units/kg) or phosphate-buffered saline (PBS) during Week 1 (D0-D4) and week 2 (D7-D10) at a volume of 100 μL into the two marked injection sites (for a total volume of 200 μL). […] For pharmacological assessment, mice received either vehicle or 1×, 3×, or 10×mg/kg of a dose of Compound 15 orally, twice daily, from Day 10 to 28. On Day 28, animals were humanely euthanized, and plasma and 2 to 8 mm back skin biopsy punches collected. The ALK5 inhibitor, SB-525334 was also included in the study as a positive control. SB-525334 was administered at a dose of 4.5×mg/kg following the same dosing regimen described for Compound 15. All treatments were administered at a volume of 1×mL/kg body weight.
For protein measurement, ½ of an 8-mm biopsy punch was homogenized in 500 μL DI water containing extraction buffer and cell extraction enhancer solution, using a Bead Ruptor 24 with CryoCool (OMNI). ELISA assays were performed on the lysates to measure Fibronectin and Procollagen1a1 and a multiplexed MSD U-plex assay was performed to measure MCP-1 and CXCL1. All kits were run according to the manufacturers' instructions. Skin protein levels were normalized to total protein in the lysate and expressed per milligram of total protein.
(§4) Data from gene and protein measurements were analyzed using GraphPad Prism 7 (GraphPad Software, San Diego, CA, USA). Group comparisons were conducted by a one-way ANOVA, followed by Dunnett's multiple comparisons test.
(§5) In the subcutaneous bleomycin-induced skin fibrosis mouse model, Compound 15 was assessed after the skin fibrosis was established during Days 1 through 10. Compound 15 was administered twice daily by oral gavage from Day 10 through Day 28 as described in Table C.

human LPAR1 = target: T1, human LPAR1 (Homo sapiens, UniProt Q92633); test: Arrestin assay (Arrestin Reporter EDG2-bla U2OS), inhibition of LPA-stimulated signal; assay type: cell-based; settings: TangoEDG2-bla U2OS cells expressing human LPAR1, 0.25 μM LPA
T1 construct: host or cells: TangoEDG2-bla U2OS cells
Outline: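 TangoEDG2-bla U2OS cells (1×10^4/well, plated 18-20 h) were preincubated 1 h at 37 °C with compound (12-point, 3-fold, 10 μM to 0.00006 μM), then stimulated 3 h with 0.25 μM LPA final. LiveBLAzer FRET B/G 460/530 nm emission ratio gave % inhibition; IC50 from 4-parameter variable-slope fit.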

[2] = system: pro-fibrotic and pro-inflammatory genes in bleomycin-induced skin fibrosis; test: Bleomycin-evoked skin fibrosis model, skin gene expression (TaqMan); assay type: in vivo, C57B6J mice; settings: for % Inhibition by Concentration vs Bleo (mean ± SEM), Col1a1 gene / % Inhibition by Concentration vs Bleo (mean ± SEM), Col6a3 gene / % Inhibition by Concentration vs Bleo (mean ± SEM), Col8a1 gene / % Inhibition by Concentration vs Bleo (mean ± SEM), Fn1 gene / % Inhibition by Concentration vs Bleo (mean ± SEM), Lpar1 gene / % Inhibition by Concentration vs Bleo (mean ± SEM), Mmp2 gene / % Inhibition by Concentration vs Bleo (mean ± SEM), Serpine1 gene / % Inhibition by Concentration vs Bleo (mean ± SEM), Timp1 gene: skin
Procedure: as §1, §2, §3
For tissue gene expression measurement, an 8-mm skin biopsy punch was homogenized in 300 μL RLT buffer containing β-mercaptoethanol (1:100) and using a QIAgen TissueLyser II. RNA was then extracted using the RNeasy Fibrous Mini Kit and purified RNA analyzed for gene expression using TaqMan Kits (Thermofisher) with indicated probes (Table B). Expression data for each sample were normalized to the housekeeping gene (Rplp0) and expressed as fold change relative to the sham treated mice.
as §4, §5

[3] = 1x mg/kg PO BID Day 10-28, vs bleomycin/vehicle
[4] = 3x mg/kg PO BID Day 10-28, vs bleomycin/vehicle
[5] = 10x mg/kg PO BID Day 10-28, vs bleomycin/vehicle
[6] = read-out: Arrestin Reporter EDG2-bla U2OS Human Merged IC50
[7] = 4.5x mg/kg PO BID Day 10-28, vs bleomycin/vehicle

T1 sequence (Q92633 whole entry): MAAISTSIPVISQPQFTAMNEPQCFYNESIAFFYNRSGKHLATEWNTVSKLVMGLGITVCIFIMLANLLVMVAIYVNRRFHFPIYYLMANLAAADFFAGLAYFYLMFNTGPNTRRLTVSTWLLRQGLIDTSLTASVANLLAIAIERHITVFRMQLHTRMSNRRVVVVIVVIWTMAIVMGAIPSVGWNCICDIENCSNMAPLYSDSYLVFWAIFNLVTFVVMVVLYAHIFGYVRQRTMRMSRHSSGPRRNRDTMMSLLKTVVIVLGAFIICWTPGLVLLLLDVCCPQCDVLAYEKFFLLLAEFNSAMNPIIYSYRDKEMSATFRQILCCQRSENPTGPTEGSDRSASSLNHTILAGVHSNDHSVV

Compound: CC(C)c1ccnn1C1(C(=O)Nc2ccc(Cl)cc2OC(F)F)CCN(C[C@H](C(=O)O)C2CCOCC2)CC1 (single isomer, unassigned) [Compound 15]
- % Inhibition by Drug Treatment, CXCL1 protein [1, 3]: 56** %
- % Inhibition by Drug Treatment, Fibronectin protein [1, 3]: 29%
- % Inhibition by Drug Treatment, MCP-1 protein [1, 3]: 50** %
- % Inhibition by Drug Treatment, Procollagen1a1 protein [1, 3]: 67*** %
- % Inhibition by Drug Treatment, CXCL1 protein [1, 4]: 71*** %
- % Inhibition by Drug Treatment, Fibronectin protein [1, 4]: 46*** %
- % Inhibition by Drug Treatment, MCP-1 protein [1, 4]: 59** %
- % Inhibition by Drug Treatment, Procollagen1a1 protein [1, 4]: 74*** %
- % Inhibition by Drug Treatment, CXCL1 protein [1, 5]: 76*** %
- % Inhibition by Drug Treatment, Fibronectin protein [1, 5]: 46*** %
- % Inhibition by Drug Treatment, MCP-1 protein [1, 5]: 73*** %
- % Inhibition by Drug Treatment, Procollagen1a1 protein [1, 5]: 77*** %
- IC50 (human LPAR1; read-out: Arrestin Reporter EDG2-bla U2OS Human IC50): 0.0478 µM
- key measures of skin inflammation and fibrosis ([2]; mice, 1×, 3×, and 10×mg/kg): significantly reduced
- % Inhibition by Concentration vs Bleo (mean ± SEM), Col1a1 gene ([2]; 1x mg/kg PO BID Day 10-28): 58 ± 12 %
- % Inhibition by Concentration vs Bleo (mean ± SEM), Col6a3 gene ([2]; 1x mg/kg PO BID Day 10-28): 62 ± 24%
- % Inhibition by Concentration vs Bleo (mean ± SEM), Col8a1 gene ([2]; 1x mg/kg PO BID Day 10-28): 16 ± 23%
- % Inhibition by Concentration vs Bleo (mean ± SEM), Fn1 gene ([2]; 1x mg/kg PO BID Day 10-28): 31 ± 20%
- % Inhibition by Concentration vs Bleo (mean ± SEM), Lpar1 gene ([2]; 1x mg/kg PO BID Day 10-28): 54 ± 24%
- % Inhibition by Concentration vs Bleo (mean ± SEM), Mmp2 gene ([2]; 1x mg/kg PO BID Day 10-28): 39 ± 26%
- % Inhibition by Concentration vs Bleo (mean ± SEM), Serpine1 gene ([2]; 1x mg/kg PO BID Day 10-28): 28 ± 31%
- % Inhibition by Concentration vs Bleo (mean ± SEM), Timp1 gene ([2]; 1x mg/kg PO BID Day 10-28): 34 ± 21%
- % Inhibition by Concentration vs Bleo (mean ± SEM), Col1a1 gene ([2]; 3x mg/kg PO BID Day 10-28): 77 ± 8 %
- % Inhibition by Concentration vs Bleo (mean ± SEM), Col6a3 gene ([2]; 3x mg/kg PO BID Day 10-28): 108 ± 9 %
- % Inhibition by Concentration vs Bleo (mean ± SEM), Col8a1 gene ([2]; 3x mg/kg PO BID Day 10-28): 43 ± 14%
- % Inhibition by Concentration vs Bleo (mean ± SEM), Fn1 gene ([2]; 3x mg/kg PO BID Day 10-28): 76 ± 5 %
- % Inhibition by Concentration vs Bleo (mean ± SEM), Lpar1 gene ([2]; 3x mg/kg PO BID Day 10-28): 97 ± 9 %
- % Inhibition by Concentration vs Bleo (mean ± SEM), Mmp2 gene ([2]; 3x mg/kg PO BID Day 10-28): 81 ± 15 %
- % Inhibition by Concentration vs Bleo (mean ± SEM), Serpine1 gene ([2]; 3x mg/kg PO BID Day 10-28): 88 ± 5 %
- % Inhibition by Concentration vs Bleo (mean ± SEM), Timp1 gene ([2]; 3x mg/kg PO BID Day 10-28): 81 ± 7 %
- % Inhibition by Concentration vs Bleo (mean ± SEM), Col1a1 gene ([2]; 10x mg/kg PO BID Day 10-28): 88 ± 6 %
- % Inhibition by Concentration vs Bleo (mean ± SEM), Col6a3 gene ([2]; 10x mg/kg PO BID Day 10-28): 117 ± 8 %
- % Inhibition by Concentration vs Bleo (mean ± SEM), Col8a1 gene ([2]; 10x mg/kg PO BID Day 10-28): 55 ± 11 %
- % Inhibition by Concentration vs Bleo (mean ± SEM), Fn1 gene ([2]; 10x mg/kg PO BID Day 10-28): 75 ± 4 %
- % Inhibition by Concentration vs Bleo (mean ± SEM), Lpar1 gene ([2]; 10x mg/kg PO BID Day 10-28): 95 ± 8 %
- % Inhibition by Concentration vs Bleo (mean ± SEM), Mmp2 gene ([2]; 10x mg/kg PO BID Day 10-28): 55 ± 12%
- % Inhibition by Concentration vs Bleo (mean ± SEM), Serpine1 gene ([2]; 10x mg/kg PO BID Day 10-28): 75 ± 9 %
- % Inhibition by Concentration vs Bleo (mean ± SEM), Timp1 gene ([2]; 10x mg/kg PO BID Day 10-28): 84 ± 5 %

Compound: CC(C)c1ccnn1C1(C(=O)Nc2ccc(Cl)cc2OC(F)F)CCN(CC(CN2CCOC(F)(F)C2)C(=O)O)CC1 (centres unmarked) [Compound 237, 2-[[4-[[4-chloro-2-(difluoromethoxy)phenyl]carbamoyl]-4-(5-isopropylpyrazol-1-yl)-1-piperidyl]methyl]-3-(2,2-difluoromorpholin-4-yl)propanoic acid]
- IC50 (human LPAR1; [6]): 0.0165 µM

Compound: CC(C)c1ccnn1C1(C(=O)Nc2ccc(Cl)cc2OC(F)F)CCN(C[C@@H](CN2CCOCC2)C(=O)O)CC1 [Compound 238, (2S)-2-[[4-[[4-chloro-2-(difluoromethoxy)phenyl]carbamoyl]-4-(5-isopropylpyrazol-1-yl)-1-piperidyl]methyl]-3-morpholino-propanoic acic]
- IC50 (human LPAR1; [6]): 0.126 µM

Compound: CC(C)c1ccnn1C1(C(=O)Nc2ccc(Cl)cc2OC(F)F)CCN(C[C@H](CN2CCOCC2)C(=O)O)CC1 [Compound 239, (2R)-2-[[4-[[4-chloro-2-(difluoromethoxy)phenyl]carbamoyl]-4-(5-isopropylpyrazol-1-yl)-1-piperidyl]methyl]-3-morpholino-propanoic acid]
- IC50 (human LPAR1; [6]): 0.0623 µM

Compound: CC(C)c1c(F)cnn1C1(C(=O)Nc2ccc(Cl)cc2OC(F)F)CCN(CC(C)(C)C(=O)O)CC1 [Compound 240, 3-[4-[[4-chloro-2-(difluoromethoxy)phenyl]carbamoyl]-4-(4-fluoro-5-isopropyl-pyrazol-1-yl)-1-piperidyl]-2,2-dimethyl-propanoic acid]
- IC50 (human LPAR1; [6]): 0.0238 µM

Compound: Cc1cccc(-c2[nH]c(C(C)(C)C)nc2-c2ccc3nccnc3c2)n1 [SB-525334, reference compound]
- % Inhibition by Drug Treatment, CXCL1 protein [1, 7]: 49* %
- % Inhibition by Drug Treatment, Fibronectin protein [1, 7]: 82*** %
- % Inhibition by Drug Treatment, Procollagen1a1 protein [1, 7]: 69*** %
- % Inhibition by Drug Treatment, MCP-1 protein ([1]; PO BID Day 10-28, vs bleomycin/vehicle): 17%

Compound: (2S)-3-[4-[[4-chloro-2- (difluoromethoxy)phenyl] carbamoyl]-4-1(65)-6- methyl-5,6-dihydro-4H- cyclopenta[c]pyrazol-1- yl]-1-piperidyl]-2- tetrahydropyran-4-yl- propanoic acid [Compound 174]
- IC50 (human LPAR1; [6]): 0.0502 µM
